From PubChem BioAssay AID248 (DTP/NCI, 2004)
“And” between values parts separate entries of the source, which are not always exact repeats. Identical values can stand only once. Inconclusive results and toxic doses are left out.

System: L1210 leukemia ip in BDF1 mice, survival T/C
Experiment: NCI In Vivo Anticancer Drug Screen. Data for tumor model L1210 Leukemia (intraperitoneal) in B6D2F1 (BDF1) mice
Settings: endpoint: mean survival time, higher = longer survival
Description: The antitumor activity of compounds was measured in mice bearing transplantable tumors. Survival or tumor size were measured and the results are expressed as the measurement made in the treated group (T) divided by the measurement made in the vehicle treated control group (C). The tumor model used in this assay is L1210 Leukemia (intraperitoneal) in B6D2F1 (BDF1) mice

[1] = dose: 100.0 mg/kg/injection, schedule: Q01DX001 (ip), vehicle: saline with Tween-80
[2] = dose: 100.0 mg/kg/injection, schedule: Q01DX009 (ip), vehicle: saline with Tween-80
[3] = dose: 100.0 mg/kg/injection, schedule: Q04DX002 (ip), vehicle: saline with Tween-80
[4] = dose: 100.0 mg/kg/injection, schedule: Q04DX003 (ip), vehicle: saline with Tween-80
[5] = dose: 200.0 mg/kg/injection, schedule: Q01DX009 (ip), vehicle: saline with Tween-80
[6] = dose: 200.0 mg/kg/injection, schedule: Q04DX002 (ip), vehicle: saline with Tween-80
[7] = dose: 200.0 mg/kg/injection, schedule: Q04DX003 (ip), vehicle: saline with Tween-80
[8] = dose: 400.0 mg/kg/injection, schedule: Q01DX001 (ip), vehicle: saline with Tween-80
[9] = dose: 400.0 mg/kg/injection, schedule: Q04DX002 (ip), vehicle: saline with Tween-80
[10] = dose: 400.0 mg/kg/injection, schedule: Q04DX003 (ip), vehicle: saline with Tween-80
[11] = dose: 100.0 mg/kg/injection, schedule: Q01DX009 (ip), vehicle: Klucel (hydroxypropylcellulose) (HPC)
[12] = dose: 200.0 mg/kg/injection, schedule: Q01DX009 (ip), vehicle: Klucel (hydroxypropylcellulose) (HPC)
[13] = dose: 400.0 mg/kg/injection, schedule: Q01DX009 (ip), vehicle: Klucel (hydroxypropylcellulose) (HPC)
[14] = dose: 100.0 mg/kg/injection, schedule: Q01DX009 (ip), vehicle: saline
[15] = dose: 200.0 mg/kg/injection, schedule: Q01DX009 (ip), vehicle: saline
[16] = dose: 400.0 mg/kg/injection, schedule: Q01DX009 (ip), vehicle: saline
[17] = dose: 100.0 mg/kg/injection, schedule: Q01DX001 (ip), vehicle: saline
[18] = dose: 200.0 mg/kg/injection, schedule: Q01DX001 (ip), vehicle: saline
[19] = dose: 100.0 mg/kg/injection, schedule: Q04DX003 (ip), vehicle: Klucel (hydroxypropylcellulose) (HPC)
[20] = dose: 400.0 mg/kg/injection, schedule: Q01DX001 (ip), vehicle: saline

## Cc1c(Cl)cccc1NC(=S)NC(=O)/C=C/c1ccccc1
dose: 50.0 mg/kg/injection, schedule: Q04DX003 (ip), vehicle: saline with Tween-80
  T/C: 96 % of control
[1]
  T/C: 90 % of control
[2]
  T/C: 98 % of control and 92 % of control
[3]
  T/C: 96 % of control and 87 % of control
[4]
  T/C: 93 % of control and 102 % of control
[5]
  T/C: 95 % of control and 98 % of control
[6]
  T/C: 107 % of control and 116 % of control
[7]
  T/C: 101 % of control
[8]
  T/C: 93 % of control
dose: 400.0 mg/kg/injection, schedule: Q01DX009 (ip), vehicle: saline with Tween-80
  T/C: 95 % of control and 90 % of control
[9]
  T/C: 111 % of control and 112 % of control
[10]
  T/C: 102 % of control and 88 % of control

## O=C(/C=C\c1ccc(C(=O)Nc2ccc(C3=NCCCN3)cc2)cc1)Nc1ccc(C2=NCCCN2)cc1
dose: 0.25 mg/kg/injection, schedule: Q01DX Z (ip), vehicle: water
  T/C: 121 % of control
dose: 0.75 mg/kg/injection, schedule: Q01DX Z (ip), vehicle: water
  T/C: 183 % of control
dose: 1.0 mg/kg/injection, schedule: Q01DX Z (ip), vehicle: water
  T/C: 220 % of control
dose: 1.25 mg/kg/injection, schedule: Q01DX Z (ip), vehicle: water
  T/C: 203 % of control
dose: 10.5 mg/kg/injection, schedule: Q01DX Z (ip), vehicle: water
  T/C: 123 % of control
dose: 50.0 mg/kg/injection, schedule: Q01DX Z (oral), vehicle: water
  T/C: 101 % of control
dose: 100.0 mg/kg/injection, schedule: Q01DX Z (oral), vehicle: water
  T/C: 93 % of control
dose: 200.0 mg/kg/injection, schedule: Q01DX Z (oral), vehicle: water
  T/C: 114 % of control

## CCc1cc(O)c(Cl)c(C)c1Cl
dose: 50.0 mg/kg/injection, schedule: Q01DX009 (ip), vehicle: gum acacia
  T/C: 97 % of control
dose: 50.0 mg/kg/injection, schedule: Q04DX003 (ip), vehicle: gum acacia
  T/C: 94 % of control
dose: 100.0 mg/kg/injection, schedule: Q01DX009 (ip), vehicle: gum acacia
  T/C: 92 % of control
dose: 100.0 mg/kg/injection, schedule: Q04DX003 (ip), vehicle: gum acacia
  T/C: 98 % of control
dose: 200.0 mg/kg/injection, schedule: Q04DX003 (ip), vehicle: gum acacia
  T/C: 96 % of control

## COc1cc(C)c(OC)cc1C
[4]
  T/C: 99 % of control
[7]
  T/C: 99 % of control
[10]
  T/C: 94 % of control

## Cc1cc(C(=O)Nc2ccc(NC3=NCCN3)cc2)cc(C(=O)Nc2ccc(NC3=NCCN3)cc2)c1
dose: 3.0 mg/kg/injection, schedule: Q01DX Z (ip), vehicle: saline
  T/C: 103 % of control
dose: 6.0 mg/kg/injection, schedule: Q01DX Z (ip), vehicle: saline
  T/C: 103 % of control
dose: 12.0 mg/kg/injection, schedule: Q01DX Z (ip), vehicle: saline
  T/C: 100 % of control
dose: 15.0 mg/kg/injection, schedule: Q01DX Z (ip), vehicle: saline
  T/C: 110 % of control

## COc1ccc(Cl)cc1NC(=O)c1ccc(C(=O)Nc2cc(Cl)ccc2OC)cc1
dose: 50.0 mg/kg/injection, schedule: Q01DX009 (ip), vehicle: Klucel (hydroxypropylcellulose) (HPC)
  T/C: 109 % of control
[11]
  T/C: 90 % of control
[12]
  T/C: 86 % of control and 92 % of control
[13]
  T/C: 94 % of control

## S=Cc1cccc2c1CCCC2
[14]
  T/C: 111 % of control
[15]
  T/C: 100 % of control
[16]
  T/C: 97 % of control

## O=C(/C=C/c1ccccc1)c1ccc(O)cc1O
dose: 50.0 mg/kg/injection, schedule: Q01DX001 (ip), vehicle: saline
  T/C: 97 % of control
[17]
  T/C: 95 % of control
[18]
  T/C: 97 % of control

## CCCCCCCCCCCCCCCCCCNC(=O)N1CCCCC1C (stereo not drawn)
[11]
  T/C: 89 % of control
[12]
  T/C: 96 % of control
[13]
  T/C: 100 % of control

## COC1=C(NC2CCCCC2)C(=O)C(OC)=C(NC2CCCCC2)C1=O
dose: 50.0 mg/kg/injection, schedule: Q01DX001 (ip), vehicle: carboxymethylcellulose (CMC)
  T/C: 103 % of control
dose: 100.0 mg/kg/injection, schedule: Q01DX001 (ip), vehicle: carboxymethylcellulose (CMC)
  T/C: 101 % of control
[11]
  T/C: 86 % of control
[19]
  T/C: 96 % of control
dose: 200.0 mg/kg/injection, schedule: Q01DX001 (ip), vehicle: carboxymethylcellulose (CMC)
  T/C: 101 % of control
[12]
  T/C: 98 % of control
dose: 200.0 mg/kg/injection, schedule: Q04DX003 (ip), vehicle: Klucel (hydroxypropylcellulose) (HPC)
  T/C: 94 % of control
dose: 400.0 mg/kg/injection, schedule: Q01DX001 (ip), vehicle: carboxymethylcellulose (CMC)
  T/C: 103 % of control
[13]
  T/C: 91 % of control
dose: 400.0 mg/kg/injection, schedule: Q04DX003 (ip), vehicle: Klucel (hydroxypropylcellulose) (HPC)
  T/C: 94 % of control

## [Cu+2].[NH-]C(CC(N)=O)C(=O)O.[NH-]C(CC(N)=O)C(=O)O (stereo not drawn)
dose: 12.5 mg/kg/injection, schedule: Q01DX009 (ip), vehicle: saline
  T/C: 107 % of control
dose: 12.5 mg/kg/injection, schedule: Q04DX003 (ip), vehicle: saline
  T/C: 92 % of control
dose: 25.0 mg/kg/injection, schedule: Q01DX009 (ip), vehicle: saline
  T/C: 98 % of control
dose: 25.0 mg/kg/injection, schedule: Q04DX003 (ip), vehicle: saline
  T/C: 94 % of control
dose: 50.0 mg/kg/injection, schedule: Q04DX003 (ip), vehicle: saline
  T/C: 87 % of control

## CN(CC(O)COc1ccccc1)CC1CCCO1 (stereo not drawn)
dose: 25.0 mg/kg/injection, schedule: Q04DX003 (ip), vehicle: Klucel (hydroxypropylcellulose) (HPC)
  T/C: 98 % of control
dose: 50.0 mg/kg/injection, schedule: Q04DX003 (ip), vehicle: Klucel (hydroxypropylcellulose) (HPC)
  T/C: 97 % of control
[19]
  T/C: 95 % of control and 98 % of control

## CNC(=O)Oc1ccc(C(=O)OC)cc1
[17]
  T/C: 93 % of control
[18]
  T/C: 90 % of control
[20]
  T/C: 122 % of control

## O=c1[nH]n(-c2ccccc2)c(=O)cc1Cl
dose: 50.0 mg/kg/injection, schedule: Q01DX009 (ip), vehicle: saline with Tween-80
  T/C: 97 % of control
[2]
  T/C: 89 % of control
[5]
  T/C: 86 % of control

## COC(=O)C1CN1C(c1ccccc1)(c1ccccc1)c1ccccc1 (stereo not drawn)
[1]
  T/C: 92 % of control
[4]
  T/C: 94 % of control
dose: 200.0 mg/kg/injection, schedule: Q01DX001 (ip), vehicle: saline with Tween-80
  T/C: 100 % of control
[7]
  T/C: 98 % of control
[8]
  T/C: 90 % of control
[10]
  T/C: 90 % of control

## CCCC(=O)NO
[17]
  T/C: 97 % of control
[14]
  T/C: 102 % of control
dose: 100.0 mg/kg/injection, schedule: Q04DX003 (ip), vehicle: saline
  T/C: 109 % of control and 105 % of control
[18]
  T/C: 114 % of control
[15]
  T/C: 104 % of control
dose: 200.0 mg/kg/injection, schedule: Q04DX003 (ip), vehicle: saline
  T/C: 111 % of control and 96 % of control
[20]
  T/C: 108 % of control
[16]
  T/C: 114 % of control
dose: 400.0 mg/kg/injection, schedule: Q04DX003 (ip), vehicle: saline
  T/C: 112 % of control and 100 % of control

## CC(C)(C)C(=O)[CH-]C(=O)C(C)(C)C.CC(C)(C)C(=O)[CH-]C(=O)C(C)(C)C.CC(C)(C)C(=O)[CH-]C(=O)C(C)(C)C.CN(C)C=O.[Er+3]
[3]
  T/C: 105 % of control
[6]
  T/C: 94 % of control
[9]
  T/C: 94 % of control

## Cn1cc[n+](C)c1
[17]
  T/C: 102 % of control
[18]
  T/C: 97 % of control
[20]
  T/C: 100 % of control

## CSc1nc(N(C)C)c2[nH]c(C)nc2n1
[17]
  T/C: 87 % of control
[18]
  T/C: 101 % of control

## O=S(=O)(Cc1ccccc1)C(Br)Br
dose: 100.0 mg/kg/injection, schedule: Q01DX001 (ip), vehicle: other
  T/C: 106 % of control
dose: 100.0 mg/kg/injection, schedule: Q04DX002 (ip), vehicle: Klucel (hydroxypropylcellulose) (HPC)
  T/C: 100 % of control
dose: 200.0 mg/kg/injection, schedule: Q01DX001 (ip), vehicle: other
  T/C: 101 % of control
dose: 200.0 mg/kg/injection, schedule: Q04DX002 (ip), vehicle: Klucel (hydroxypropylcellulose) (HPC)
  T/C: 97 % of control
dose: 400.0 mg/kg/injection, schedule: Q01DX001 (ip), vehicle: other
  T/C: 101 % of control
dose: 400.0 mg/kg/injection, schedule: Q04DX002 (ip), vehicle: Klucel (hydroxypropylcellulose) (HPC)
  T/C: 103 % of control
